These results are taken from the METLIN SMRT retention time set (Domingo-Almenara et al. 2019).

Molecules are shown by their SMILES.

This data set is described as follows: gradient 5% acetonitrile 3 min, to 50% in 2 min, to 85% in 15 min, held 3 min, 100 µL/min. The settings on record: column: Zorbax Extend-C18 2.1 x 50 mm; eluents: water / acetonitrile, 0.1% formic acid. In a few lines:
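The system's dead and dwell volumes were 40 μL and 900 μL, with a Zorbax Extend-C18 column (2.1 × 50 mm, 1.8 μm) run at 100 μL/min in water and acetonitrile containing 0.1% formic acid each. Pure standards were analyzed in mixtures of ~100 molecules by HPLC–quadrupole time-of-flight mass spectrometry in positive and negative ionization mode. Retention time was assigned from computationally picked, manually inspected adduct peaks.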
As for `COc1ccc(NC(=O)N2C[C@@H](F)C[C@H]2C(=O)N2CCc3ccccc3C2)cc1F`, the RP-LC retention time was 797 s. For the compound `CN1C(=O)c2cccn2CC1CNS(=O)(=O)Cc1ccccc1` (stereo not given), the RP-LC retention time was determined as 678 s.

Compound `CN1c2ccccc2Oc2nnc(N3CCN(c4ccccn4)CC3)cc21` displayed an RP-LC retention time of 550 s. In the case of `CC(C)NC(=O)c1cc(N(C)C)nc2c(Cl)cccc12` it was 816 s; in that of `Fc1ccc(-c2nnc(Cc3nc(-c4ccc(F)c(F)c4)no3)o2)cc1`, 1030 s; in that of `O=C(CN1CCN(Cc2ccc(F)cc2)C1=O)NCc1cc(F)ccc1F`, 806 s.

The compound `COc1cc(NC(=O)C2CCN(S(=O)(=O)c3c(C)nn(-c4ccccc4)c3C)CC2)cc(OC)c1` had an RP-LC retention time of 848 s.

`O=S(=O)(Cc1ccccc1)N1CCC(OCCOc2cccnc2)CC1` displayed an RP-LC retention time of 665 s. Compound `CCCn1c(=O)c(C)nc2cc(-c3noc(COc4ccc(F)cc4)n3)ccc21` gave an RP-LC retention time of 1060 s.

In the case of `O=C(CN1C(=O)c2cccnc2Oc2ccccc21)NCCc1c[nH]c2ccccc12`, the RP-LC retention time amounted to 766 s.

Consider `O=C(Cn1nc2n(c1=O)CCCC2)Nc1cccc(F)c1`, for which the RP-LC retention time was found to be 638 s. In the case of `Cc1cc(NC(=O)c2cnc3c(c2)c(=O)n(C)c(=O)n3-c2ccccc2)ccc1F` it was 942 s. Turning to `CCOC(=O)c1ccc(NC(=O)C2CCN(S(=O)(=O)c3cn(C(C)C)cn3)CC2)cc1`, the RP-LC retention time was 789 s. As to `CC1(C)CC(=O)c2cn(-c3ccccc3)c(=O)c(C(=O)N3CCN(C4CCCCC4)CC3)c2C1`, the RP-LC retention time worked out at 586 s. Take `c1ccc(-c2nc3ncc4c(n3n2)CCC4)cc1`: the RP-LC retention time is 756 s. As to `CCCCn1nc2ccc(S(=O)(=O)N3CCOCC3)cn2c1=O`, the RP-LC retention time was found to be 739 s. In the case of `Cc1noc2nc(C)n(CC(=O)NCc3cccc(Br)c3)c(=O)c12` it was 805 s. In the case of `COc1ccc(NC(=O)/C=C/c2ccc(Cl)cc2)cc1` it was 1090 s. For the compound `CCC(=O)N(C1CCOCC1)C1CCN(Cc2cn(C)c3ccccc23)CC1`, the RP-LC retention time came out at 638 s. `Cc1noc(-c2cccc(OC3CN(C(=O)Nc4cccc(F)c4)C3)c2)n1` returned an RP-LC retention time of 923 s. In the case of `O=C(CCc1conc1-c1ccc(F)cc1)NC1CCCCCC1` it was 969 s.

On to `CCc1noc(COC2CCCN(C(=O)Cn3ccnc3)C2)n1` (stereo not given), for which the RP-LC retention time was determined as 586 s. Consider `COc1ccc(-c2ccc3nc(N4CCC(C(=O)NC5CC5)CC4)sc3n2)cc1`, for which the RP-LC retention time amounted to 746 s. As for `O=C(CN1CCN(Cc2ccccc2F)C1=O)N1CCN(C2CCCCC2)CC1`, the figure is 613 s; as for `Cc1nn(C)c2nc(OCC(=O)Nc3ccc(Br)cc3F)cc(C(F)(F)F)c12`, 1080 s; as for `CCOc1cccc(CNc2nc3ccncc3n(C(C)C)c2=O)c1`, 687 s. As for `Cc1nnsc1C(=O)N1CCC(CNC(=O)c2cc(-c3ccccc3)on2)CC1`, the figure is 761 s; as for `COc1cccc(-c2noc(C3CCCN3C(=O)Nc3ccccc3)n2)c1` (stereo not given), 961 s; as for `COC[C@@H]1CN(S(=O)(=O)c2ccccc2C)C[C@H]1c1ccccn1`, 637 s. In the case of `CCn1c(C(=O)Nc2ccc(C)cc2C)cc2sc(Cl)cc21` it was 1240 s; in that of `CCNC(=O)N1CCCCCC1CN1CCCC1` (stereo not given), 564 s; in that of `CC(O)(CCc1ccccc1)CNC(=O)c1ccc(F)cc1` (stereo not given), 758 s. Take `O=C(NCCCS(=O)(=O)N1CCN(c2ncccn2)CC1)c1ccncc1`: the RP-LC retention time was determined as 568 s. As to `CCC1CCCCN1C(=O)c1cnc2nc(C)ccc2c1Nc1cc(C)ccc1C` (stereo not given), the RP-LC retention time came to 737 s. As for `CCCN1C(=O)COc2ccc(-c3noc(-c4cncc(Br)c4)n3)cc21`, the RP-LC retention time was determined as 1160 s. In the case of `CC1(C)Cc2cccc(OCC(=O)NCC3CN(c4ccccc4)C(=O)O3)c2O1` (stereo not given) it was 796 s; in that of `COc1cccc(Cn2nc3c(S(=O)(=O)N4CCCC4)cccn3c2=O)c1`, 814 s; in that of `COc1ccc(OC)c(CNC(=O)c2ccc3[nH]c4c(c3c2)CN(C(C)=O)CC4)c1`, 680 s. Compound `O=C(C1CCN(c2nc3ccc(-c4ccc(F)cc4)nc3s2)CC1)N1CCOCC1` yielded an RP-LC retention time of 864 s.

The compound `Cc1[nH]c(C)c(S(=O)(=O)N2CCN(c3ccccn3)CC2)c1C(=O)N1CCCC1` yielded an RP-LC retention time of 586 s.

`CCCC(=O)N1CCN(c2nc3ccccc3n(CC(C)C)c2=O)CC1` gave an RP-LC retention time of 1000 s. On to `CN1C(=O)CCc2cc(NS(=O)(=O)c3cccc4nsnc34)ccc21`, for which the RP-LC retention time turned out to be 716 s. `CCn1nc(C)c(CCN(C)C(=O)Nc2ccccc2Br)c1C`: the RP-LC retention time stood at 705 s. As for `CCn1cc(C2=CCN(C(=O)Nc3ccc(OC)cc3)CC2)c2cccnc21`, the figure is 811 s.

For `O=C(NCc1ccccc1F)c1ccc2c(c1)CN(Cc1cccc(F)c1)CCO2`, the RP-LC retention time is 675 s. As for `CCOc1ccc(NC(=O)NC(C)C(=O)N2CCc3ccccc32)cc1` (stereo not given), the figure is 855 s; as for `Cc1nn(-c2ccc(Cl)cc2)c(C)c1S(=O)(=O)N1CCC(C(=O)N2CCCCC2)CC1`, 995 s.

Turning to `CN(C)C(=O)c1csc(S(=O)(=O)N2CCC(C(=O)Nc3ccccc3)CC2)c1`, the RP-LC retention time came to 752 s. In the case of `CCOC(=O)c1[nH]c(C)c(CCC(=O)N2CCC(C(=O)NCc3ccccc3OC)CC2)c1C`, the RP-LC retention time stood at 800 s. In the case of `CCCNc1cc(N2CCC(CCC(=O)NC(CC)CC)CC2)ncn1` it was 656 s; in that of `CCOC(=O)Cc1csc(NC(=O)Cn2nc3c(cc2=O)CCCCC3)n1`, 769 s; in that of `COc1ccccc1N1CCN(C(=O)C2CCN(c3c(C)n(C)c(=O)n(C)c3=O)CC2)CC1`, 718 s. Take `COCCNC(=O)C1CCCN(c2cnc3nccnc3c2)C1` (stereo not given): the RP-LC retention time turned out to be 588 s.

As for `Fc1ccc(Cl)cc1-c1nc(Nc2ccncc2)c2nccnc2n1`, the RP-LC retention time came to 648 s. In the case of `CCOc1ccccc1NC(=O)CN1c2ccc(F)cc2-c2ccccc2S1(=O)=O` it was 1090 s; in that of `COc1ccc(-c2nnc(-c3ccc(Cl)c(S(=O)(=O)N4CCOCC4)c3)o2)cc1`, 897 s; in that of `Cc1ccc(NC(=O)C2CCCN(c3ncnc4c3nc3n4CCCCC3)C2)nc1` (stereo not given), 699 s. As for `Cc1ccccc1-c1noc(CCc2nnc3ccc(N4CCN(c5ccc(F)cc5)CC4)nn23)n1`, the RP-LC retention time turned out to be 1110 s. `COc1ccc(NC(=O)Cn2c(=O)c(CCC(=O)NCC(C)C)nc3ccccc32)cc1` displayed an RP-LC retention time of 798 s. `O=C(NCc1ccccc1)N1CCC(OCc2nc(C3CC3)no2)CC1` came in with an RP-LC retention time of 776 s.

The compound `Cc1ccccc1CNC(=O)CN1C(=O)CCCc2cc(S(=O)(=O)N3CCC(C)CC3)ccc21` showed an RP-LC retention time of 975 s. `CCCc1noc(-c2cccnc2N2CCCN(Cc3ccc(Cl)cc3)CC2)n1` came in with an RP-LC retention time of 754 s.

For `CCN1c2ccccc2C(=O)NC12CCN(C(=O)c1cccc(C)c1)CC2`, the RP-LC retention time came to 805 s. `CCn1c(=O)c2ccccc2n(Cc2nc(-c3ccccc3OC)no2)c1=O` registered an RP-LC retention time of 909 s. Take `Cc1ccc(N2CC(c3noc(-c4ccncc4)n3)CC2=O)cc1` (stereo not given): the RP-LC retention time came out at 798 s. As for `CCCNC(=O)c1cn(-c2ccc(-c3nc(C4CC4)no3)cn2)cn1`, the figure is 815 s; as for `Cc1cc(C)n(-c2nc(CC(=O)N3CCN(c4ccccc4)CC3)cs2)n1`, 947 s. `Cn1nc2c(c1NC(=O)c1cc(C(F)(F)F)cc(C(F)(F)F)c1)CCC2` yielded an RP-LC retention time of 927 s. Regarding `Cc1ccc(C(C)NC(=O)c2cn3ccncc3n2)c(C)c1` (stereo not given), the RP-LC retention time stood at 787 s. As for `O=C(Nc1ccc2c(c1)OCO2)C1CCCN(S(=O)(=O)c2c[nH]c(C(=O)N3CCCC3)c2)C1` (stereo not given), the figure is 747 s. As for `O=C(NCc1cccs1)c1nc(N2CCOCC2)c2ccccc2n1`, the figure is 641 s.

`CCS(=O)(=O)Nc1ccc(Nc2c3ccccc3nc3ccccc23)c(OC)c1`: the RP-LC retention time came to 649 s. As for `O=C(NCC(c1cccnc1)N1CCOCC1)c1ccccc1` (stereo not given), the figure is 522 s; as for `Cc1ccc(CNC(=O)C2CCN(S(C)(=O)=O)c3cc(C)ccc3O2)cc1` (stereo not given), 912 s. `Cc1ccc(NC(=O)Cn2nc(C(=O)N3CCCC3)c3ccccc32)cc1Cl` displayed an RP-LC retention time of 950 s. In the case of `CN1CCN(CCNC(=O)Cn2c3ccccc3c3cnn(C)c(=O)c32)CC1` it was 570 s; in that of `Cc1cc(C)cc(N2CCC(NC(=O)Nc3ccc(F)cc3F)C2=O)c1` (stereo not given), 904 s; in that of `Cc1ccc2nc(C(=O)N3CCN(c4ccc(F)cc4)CC3)cn2c1`, 650 s. The compound `COc1ccc(OC)c(NC(=O)CN2CCN(Cc3ccccc3)C(=O)C2=O)c1` registered an RP-LC retention time of 732 s. As for `Cc1ccc(NC(=O)COc2nc(C)nc3ccccc23)c(Br)c1`, the figure is 874 s.
